# Laboratory results taken from ChEMBL document CHEMBL1138244, “Three-dimensional quantitative structure-activity relationships and activity predictions of human TRPV1 channel antagonists: comparative molecular field analysis and comparative molecular similarity index analysis of cinnamides” (J Med Chem, 2007).
# Assay: Inhibition of rat human chimera TRPV1 channel expressed in CHO cells
# Type: cell-based
SMILES,IC50,pIC50
CC(C)(C)c1ccc(/C=C/C(=O)Nc2ccc3c(c2)CCCC3)cc1,102 nM,
O=C(/C=C/c1ccc(C(F)(F)F)nc1N1CCCCC1)Nc1ccc2cccnc2c1,1 nM,8.94
O=C(/C=C/c1ccc(C(F)(F)F)nc1N1CCOCC1)Nc1ccc2cccnc2c1,2 nM,8.78
O=C(/C=C/c1ccc(O)cc1)Nc1ccc2c(c1)OCCO2,> 40000 nM,4.4
CCCCc1ccc(/C=C/C(=O)Nc2ccc3c(c2)OCCO3)cc1,312 nM,6.51
CC(C)(C)c1ccc(C(=CC(=O)Nc2ccc3c(c2)OCCO3)c2ccc(C(C)(C)C)cc2)cc1,2510 nM,5.6
CC(C)(C)c1ccc(/C=C/C(=O)Nc2ccc3c(c2)OCC(=O)N3)cc1,391 nM,
CC(C)(C)c1ccc(/C(=C/C(=O)Nc2ccc3c(c2)OCCO3)c2ccncc2)cc1,119 nM,6.92
CC(C)Cc1ccc(/C=C/C(=O)Nc2ccc3c(c2)OCCO3)cc1,1010 nM,5.99
Cc1nc(C(F)(F)F)ccc1/C=C/C(=O)Nc1ccc2c(c1)OCCO2,1110 nM,5.95
Cc1ccc(/C=C/C(=O)Nc2ccc3c(c2)OCCO3)cc1,293 nM,6.53
CCc1ccc(/C=C/C(=O)Nc2ccc3c(c2)OCCO3)cc1,247 nM,6.61
CC(C)(C)c1ccc(CCC(=O)Nc2ccc3c(c2)OCCO3)cc1,226 nM,6.65
CC(C)C/C(=C\C(=O)Nc1ccc2c(c1)OCCO2)c1ccc(C(C)(C)C)cc1,41 nM,7.38
CC(C)(C)c1ccc(/C=C/C(=O)Oc2ccc3c(c2)OCCO3)cc1,868 nM,6.06
CC(C)(C)c1cccc(/C=C/C(=O)Nc2ccc3c(c2)OCCO3)c1,548 nM,6.26
CC(C)(C)c1ccc(/C(=C/C(=O)Nc2ccc3c(c2)OCCO3)c2ccccc2)cc1,48 nM,7.32
CC/C(=C\c1ccc(C(C)(C)C)cc1)C(=O)Nc1ccc2c(c1)OCCO2,501 nM,6.3
CC(C)(C)c1ccc(/C=C/C(=O)Nc2ccc3c(c2)OCCO3)nc1,1060 nM,5.97
COc1ccccc1NC(=O)/C=C/c1ccc(C(C)(C)C)cc1,859 nM,6.07
CC(C)(C)c1ccc(/C(=C/C(=O)Nc2ccc3c(c2)OCCO3)c2cccnc2)cc1,144 nM,6.84

SMILES,IC50,pIC50
O=C(/C=C/c1ccc(C(F)(F)F)nc1)Nc1ccc2c(c1)OCCO2,1070 nM,5.97
COc1cccc(NC(=O)/C=C/c2ccc(C(C)(C)C)cc2)c1,57 nM,7.24
CC(C)(C)c1ccc(/C=C/C(=O)Nc2ccc3cccnc3c2)cc1,3 nM,
COc1ccc(NC(=O)/C=C/c2ccc(C(C)(C)C)cc2)cc1,166 nM,6.78
COc1ccc(/C=C/C(=O)Nc2ccc3c(c2)OCCO3)cc1,1870 nM,5.73
CC(C)(C)c1ccc(/C=C/C(=O)Nc2ccc3c(c2)NCCC3)cc1,55 nM,
CC(C)(C)c1ccc(/C=C/C(=O)Nc2ccc3c(c2)OCCO3)c(Br)c1,157 nM,6.8
CC(C)(C)c1ccc(/C(=C/C(=O)Nc2ccc3c(c2)OCCO3)Cc2ccccc2)cc1,21 nM,7.69
COc1ccc(NC(=O)/C=C/c2ccc(C(C)(C)C)cc2)cc1OC,230 nM,6.64
CCOC(=O)c1cc(C(C)(C)C)ccc1/C=C/C(=O)Nc1ccc2c(c1)OCCO2,26 nM,7.58
CC(C)(C)c1ccc(/C=C\C(=O)Nc2ccc3c(c2)OCCO3)cc1,1900 nM,5.72
CN(C)c1ccc(/C=C/C(=O)Nc2ccc3c(c2)OCCO3)cc1,1320 nM,5.88
O=C(/C=C/c1cccc(Br)c1)Nc1ccc2c(c1)OCCO2,404 nM,6.39
O=C(/C=C/c1ccc(F)c(F)c1)Nc1ccc2c(c1)OCCO2,1310 nM,5.88
O=C(/C=C/c1ccc(Cl)cc1)Nc1cccc(Cl)c1,993 nM,6
CCC/C(=C\C(=O)Nc1ccc2c(c1)OCCO2)c1ccc(C(C)(C)C)cc1,120 nM,6.92
CC(C)(C)c1ccc(/C=C/C(=O)Nc2ccc3oc(=O)cnc3c2)cc1,18 nM,
CC(C)(C)c1ccc(/C=C/C(=O)Nc2ccc3cc[nH]c3c2)cc1,19 nM,
CC(C)(C)c1ccc(/C=C/C(=O)Nc2ccc3ccc(=O)[nH]c3c2)cc1,4 nM,
CC(C)(C)c1ccc(/C=C/C(=S)Nc2ccc3c(c2)OCCO3)cc1,392 nM,6.41
CC(C)(C)c1ccc(/C=C/C(=O)Nc2ccc3c(c2)OCCO3)c(C2CCCC2)c1,6 nM,8.21

SMILES,IC50,pIC50
CCC(C)/C(=C\c1ccc(C(C)(C)C)cc1)C(=O)Nc1ccc2c(c1)OCCO2 (stereo not given),545 nM,6.26
COc1cc(/C=C/C(=O)Nc2ccc3c(c2)OCCO3)cc(OC)c1OC,> 40000 nM,4.4
CN(C(=O)/C=C/c1ccc(C(C)(C)C)cc1)c1ccc2c(c1)OCCO2,19400 nM,4.71
CC(C)(C)c1ccc(/C=C/CNc2ccc3c(c2)OCCO3)cc1,> 40000 nM,4.4
C/C(=C\C(=O)Nc1ccc2c(c1)OCCO2)c1ccc(C(C)(C)C)cc1,82 nM,7.09
CC(C)(C)c1ccc(/C=C/C(=O)Nc2ccc3c(c2)NCCO3)cc1,173 nM,
CC(C)(C)c1ccc(/C=C/C(=O)Nc2ccc3c(c2)OCCO3)cn1,183 nM,6.74
O=C(/C=C/c1ccc(C(F)(F)F)cc1)Nc1ccc2c(c1)OCCO2,120 nM,6.92
CC(C)(C)c1ccc(/C=C/C(=O)Nc2ccc3c(c2)OCCN3)cc1,26 nM,
CC(C)(C)c1ccc(/C(=C/C(=O)Nc2ccc3c(c2)OCCO3)c2ccc(C(F)(F)F)cc2)cc1,47 nM,7.33
CC(C)(C)c1ccc(/C=C(/C(=O)Nc2ccc3c(c2)OCCO3)c2ccccc2)cc1,10700 nM,4.97
C/C(=C\c1ccc(C(C)(C)C)cc1)C(=O)Nc1ccc2c(c1)OCCO2,164 nM,6.78
CCOC(=O)CC/C(=C\C(=O)Nc1ccc2c(c1)OCCO2)c1ccc(C(C)(C)C)cc1,56 nM,7.25
CC(C)(C)c1ccc(/C=C/C(=O)Nc2cccc(C(N)=O)c2)cc1,33 nM,7.48
O=C(/C=C/c1ccc(Cl)c(Cl)c1)Nc1ccc2c(c1)OCCO2,449 nM,6.35
O=C(/C=C/c1ccc(C(F)(F)F)cc1Br)Nc1ccc2c(c1)OCCO2,453 nM,6.34
CC(C)(C)c1ccc(/C=C(/C(=O)Nc2ccc3c(c2)OCCO3)C2CCCC2)cc1,15400 nM,4.81
CC(C)(C)c1ccc(C(=O)CC(=O)Nc2ccc3c(c2)OCCO3)cc1,582 nM,6.23
CC(C)(C)c1ccc(/C=C/C(=O)Nc2ccccc2)cc1,269 nM,6.57
CC(C)c1ccc(/C=C/C(=O)Nc2ccc3c(c2)OCCO3)cc1,98 nM,7.01
